Reference: patent publication US20150104806A1, “Parkinson's Disease Biomarker” (University of Dundee, priority 2012, published 2015)

How the values were obtained:
[1] = system: human PINK1; test: Parkin Ser65 phosphorylation in Flp-In T-Rex HEK293 cells expressing PINK1-FLAG after CCCP stimulation; type: cell-based
Description: (§1) Flp-In T-Rex stable cell lines were cultured using DMEM (Dulbecco's modified Eagle's medium) supplemented with 10% FBS (Fetal Bovine Serum), 2 mM L-Glutamine, 1× Pen/Strep, 15 μg/ml of Blasticidin and 100 μg/ml of Hygromycin. Cell transfections of HA-parkin or untagged parkin were performed using the polyethyleneimine (PEI) method (Reed et al, 2006). Cultures were induced to express protein by addition of 0.1 μg/ml of Doxycycline in the medium for 24 hours. To uncouple mitochondria, cells were treated with 10 μM CCCP (Sigma) dissolved in DMSO for the indicated times. An equivalent volume of DMSO was used as a control.
Cells were lysed and fractionated by the indicated buffer and methods: Whole cell lysis using buffer: 50 mM Tris/HCl (pH 7.4), 1 mM EGTA, 1 mM EDTA, 1%(w/v) 1 mM sodium orthovanadate, 10 mM sodium β-glycerophosphate, 50 mM NaF, 5 mM sodium pyrophosphate, 0.27M sucrose, 1 mM benzamidine and 2mMPMSF and 1%(v/v) Triton X-100. Lysates were clarified by centrifugation at 13,000 rpm for 10 min at 4° C. and the supernatant was collected. […] Protein concentration was determined using the Bradford method (Thermo Scientific) with BSA as the standard. […]

[2] = system: human PINK1; test: PINK1 stabilisation, band-shift and Thr257 autophosphorylation in mitochondrial/cytoplasmic extracts of CCCP-treated Flp-In T-Rex HEK293 cells; type: cell-based
Description: as §1
Cells were lysed and fractionated by the indicated buffer and methods: Whole cell lysis using buffer: 50 mM Tris/HCl (pH 7.4), 1 mM EGTA, 1 mM EDTA, 1%(w/v) 1 mM sodium orthovanadate, 10 mM sodium β-glycerophosphate, 50 mM NaF, 5 mM sodium pyrophosphate, 0.27M sucrose, 1 mM benzamidine and 2mMPMSF and 1%(v/v) Triton X-100. Lysates were clarified by centrifugation at 13,000 rpm for 10 min at 4° C. and the supernatant was collected. Mitochondrial fractionation: cells were lysed in buffer containing 250 mM sucrose, 20 mM HEPES, 3 mM EDTA, 1%(w/v) 1 mM sodium orthovanadate, 10 mM sodium β-glycerophosphate, 50 mM NaF, 5 mM sodium pyrophosphate, pH 7.5 and protease inhibitor cocktail (Roche) at 4° C. Cells were disrupted using a glass hand held homogeniser (20 passes) and the lysate was clarified by centrifuging for 10 min at 800 g at 4° C. The supernatant was further centrifuged at 16,600 g for 10 min. The resultant supernatant served as the cytosolic fraction. The pellet containing the mitochondrial fraction was resuspended in buffer containing 1% Triton X-100 and centrifuged at 13,000 rpm for 10 min. This supernatant contained solubilized mitochondrial proteins. All lysates were snap-frozen at −80° C. until use. Protein concentration was determined using the Bradford method (Thermo Scientific) with BSA as the standard.
Immunoprecipitation of recombinant PINK1-FLAG was undertaken by standard methods with anti-FLAG agarose beads (Sigma); of HA-parkin with anti-HA agarose beads (Sigma); and of untagged parkin with anti-parkin antibody (S966C) covalently conjugated to protein G-Sepharose. Immunoprecipitates, as well as cell lysates in SDS sample buffer were subjected to SDS-PAGE and transferred to PVDF membranes. For immunoblotting, membranes were incubated for 60 mins with 1% TBST containing either 5% (wt/vol) skimmed milk powder (for total antibodies) or 5% (wt/vol) BSA (for phospho-specific antibodies). The antibodies were then incubated in the same buffer overnight at 4° C. with the indicated primary antibodies. Sheep total and phospho-specific antibodies were used at a concentration of 1 μg/ml, whereas commercial antibodies were diluted 1000-fold. The incubation with phospho-specific sheep antibodies was performed with the addition of 10 μg/ml of the dephosphopeptide antigen used to raise the antibody. Blots were washed with 0.1% TBST and incubated with secondary HRP-conjugated antibodies in 5% skimmed milk for 60 mins. After repeated washes, the signal was detected with the enhanced chemiluminescence and the X-ray films were processed in a Konica Minolta Medical SRX-101 film processor.
10 mg of mitochondrial extract from Flp-In T-Rex HEK 293 cell lines stably PINK1-FLAG were subjected to immunoprecipitation with anti-FLAG-agarose and then eluted in LDS sample buffer. […]

[3] = system: human PINK1; test: Immunoprecipitation kinase assay of mitochondrial PINK1-FLAG from CCCP-treated HEK293 cells with GST-parkin Ubl (1-108) substrate; type: cell-based
Description: (§2) In assays utilising E. coli expressed wild-type or kinase dead (D359A) MBP-TcPINK1, reactions were set up in a volume of 40 μl, with substrates at 1 μg and kinase at 0.5 μg in 50mMTris-HCl (pH 7.5), 0.1 mM EGTA, 10 mM MgCl2, 2 mM dithiothreitol (DTT) and 0.1 mM [γ-^32P] ATP (approximately 500 cpm/pmol). Assays were incubated at 30° C. with shaking at 1200 rpm and terminated after the indicated time by addition of SDS sample buffer. In mammalian HEK293 immunoprecipitation kinase assays, C-terminal-FLAG tagged wild-type or kinase dead (D384A) PINK1 was immunoprecipitated from 5 mg of mitochondrial enriched extracts using anti-FLAG agarose beads and activity measured in a reaction volume of 40 μl consisting of 50 mM Tris-HCl (pH 7.5), 0.1 mM EGTA, 10 mM MgCl2, 2 mM DTT, 0.1 mM [γ-^32P] ATP (2000cpm/pmol) and 5 μg of indicated substrate. Assays were incubated at 30° C. with shaking at 1200 rpm and terminated after 30 min by addition of SDS sample buffer. For all assays, reaction mixtures were resolved by SDS-PAGE. Proteins were detected by Coomassie staining and gels were imaged using an Epson scanner and dried completely using a gel dryer (Bio-Rad). Incorporation of [γ-32P] ATP into substrates was analysed by autoradiography using Amersham Hyper-Film ECL.

[4] = target: T1, PINK1 (Homo sapiens, UniProt Q9BXM7); test: Lambda phosphatase assay of immunoprecipitated PINK1 followed by in vitro kinase assay; type: biochemical; details: 50 mM EDTA with 1000U lambda phosphatase
T1 construct: expressed in transfected cells; host or cells: Flp-In T-Rex HEK293; anti-FLAG immunoprecipitate of mitochondrial enriched extract
T1 sequence (Q9BXM7 whole entry): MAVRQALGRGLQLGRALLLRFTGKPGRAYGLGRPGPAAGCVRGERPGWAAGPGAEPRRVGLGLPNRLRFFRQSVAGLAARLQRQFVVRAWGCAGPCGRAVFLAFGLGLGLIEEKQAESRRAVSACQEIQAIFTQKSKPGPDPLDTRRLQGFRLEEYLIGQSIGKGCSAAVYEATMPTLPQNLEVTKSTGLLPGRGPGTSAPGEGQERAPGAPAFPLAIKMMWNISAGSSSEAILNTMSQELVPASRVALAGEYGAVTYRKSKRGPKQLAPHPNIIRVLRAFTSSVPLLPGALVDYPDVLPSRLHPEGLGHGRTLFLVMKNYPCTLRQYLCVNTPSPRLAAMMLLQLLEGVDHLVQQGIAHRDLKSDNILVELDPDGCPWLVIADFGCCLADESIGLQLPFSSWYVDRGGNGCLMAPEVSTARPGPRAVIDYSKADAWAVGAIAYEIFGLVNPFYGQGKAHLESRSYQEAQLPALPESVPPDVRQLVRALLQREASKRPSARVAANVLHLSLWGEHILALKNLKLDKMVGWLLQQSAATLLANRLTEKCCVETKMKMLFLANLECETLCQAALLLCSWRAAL
Description: Wild-type PINK1 was incubated with or without 1000U of Lambda phosphatase (NEB) in a reaction volume of 40 μl consisting of 50 mM Tris pH 7.5, 1 mM MnCl2 and 2 mM DTT. In addition wild-type PINK1 was treated with 1000U of lambda phosphatase in the presence of 50 mM EDTA. Assays were incubated at 30° C. for 30 min with shaking at 1200 rpm. The beads were washed three times in 50 mM Tris pH7.5, 0.1 mM EGTA and then utilized in an in vitro kinase assay with GST-parkin UBL (1-108) as the substrate. Samples were further analyzed as described above.

[5] = target: T2, TcPINK1 (Tribolium castaneum, UniProt D6WMX4); test: In vitro phosphorylation of substrates by TcPINK1; type: biochemical, insect; details: time course, GST-parkin, [γ-32P] ATP
T2 construct: full-length MBP-fusion of wild type TcPINK1 (1-570); made in house; host or cells: E. coli BL21 Codon+
T2 sequence (D6WMX4 1-570): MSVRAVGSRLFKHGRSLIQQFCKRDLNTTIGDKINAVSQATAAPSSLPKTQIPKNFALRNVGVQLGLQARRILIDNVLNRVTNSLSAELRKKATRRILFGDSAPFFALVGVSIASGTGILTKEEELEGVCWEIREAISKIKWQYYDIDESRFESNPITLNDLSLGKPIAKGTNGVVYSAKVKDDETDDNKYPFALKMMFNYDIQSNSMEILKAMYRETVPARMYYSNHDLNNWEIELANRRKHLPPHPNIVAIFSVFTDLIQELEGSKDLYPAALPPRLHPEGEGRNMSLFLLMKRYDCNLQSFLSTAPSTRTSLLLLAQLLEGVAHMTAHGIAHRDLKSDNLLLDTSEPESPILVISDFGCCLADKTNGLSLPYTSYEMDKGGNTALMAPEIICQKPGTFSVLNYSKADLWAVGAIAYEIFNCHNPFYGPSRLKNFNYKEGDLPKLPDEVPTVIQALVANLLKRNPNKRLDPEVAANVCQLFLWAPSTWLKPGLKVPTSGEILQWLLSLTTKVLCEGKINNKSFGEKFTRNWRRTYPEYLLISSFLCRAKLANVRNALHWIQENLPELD
Description: as §2

N#CC(C#N)=NNc1cccc(Cl)c1 [CCCP, carbonyl cyanide m-chlorophenyl hydrazone]
time at which parkin Ser65 phosphorylation occurs ([1]; 10 μM CCCP time course, phospho-Ser65 antibody): 5 min | parkin phosphorylation at Ser65 ([1]; 10 μM CCCP, 3 hours, HEK293 cells expressing human wild-type PINK1, phospho-specific antibody): induced | levels of full-length PINK1 associated with the mitochondria ([2]; 3 hour CCCP treatment): marked increase | phosphorylation of PINK1 at Thr257 ([2]; CCCP 3 hours, wild type but not kinase-inactive PINK1, phosphospecific Thr257 antibody): markedly stimulated | time to loss of the cleaved form of PINK1 in the cytosol ([2]; CCCP time course, cytoplasmic extracts): ≤ 5 min | time to significant stabilisation of full-length PINK1 at the mitochondria ([2]; CCCP time course, mitochondrial extracts): ≤ 5 min | time to maximal stabilisation of full-length PINK1 at the mitochondria ([2]; CCCP time course, mitochondrial extracts, sustained for up to 3 hours): ≤ 40 min | time of PINK1 activation (immunoprecipitated mitochondrial PINK1 phosphorylating parkin in vitro) ([3]; CCCP time course): around 40 mins | time of maximal PINK1 activation (immunoprecipitated mitochondrial PINK1 phosphorylating parkin in vitro) ([3]; CCCP time course): 3 h | activation of human PINK1 (ability to phosphorylate parkin Ubl domain at Ser65 in vitro) ([3]; PINK1 isolated from CCCP-treated vs non-treated cells): inducing the activation

O=C(O)CN(CCN(CC(=O)O)CC(=O)O)CC(=O)O [EDTA]
effect on lambda phosphatase-induced dephosphorylation of Thr257 and loss of ability of PINK1 to phosphorylate parkin [4]: prevented

B1: parkin: human parkin protein expressed in E. coli, substrate of TcPINK1 (protein, UniProt O60260 1-465, looked up)
E3 ubiquitin-protein ligase …: MIVFVRFNSSHGFPVEVDSDTSIFQLKEVVAKRQGVPADQLRVIFAGKELRNDWTVQNCDLDQQSIVHIVQRPWRKGQEMNATGGDDPRNAAGGCEREPQSLTRVDLSSSVLPGDSVGLAVILHTDSRKDSPPAGSPAGRSIYNSFYVYCKGPCQRVQPGKLRVQCSTCRQATLTLTQGPSCWDDVLIPNRMSGECQSPHCPGTSAEFFFKCGAHPTSDKETSVALHLIATNSRNITCITCTDVRSPVLVFQCNSRHVICLDCFHLYCVTRLNDRQFVHDPQLGYSLPCVAGCPNSLIKELHHFRILGEEQYNRYQQYGAEECVLQMGGVLCPRPGCGAGLLPEPDQRKVTCEGGNGLGCGFAFCRECKEAYHEGECSAVFEASGTTTQAYRVDERAAEQARWEAASKETIKKTTKPCPRCHVPVEKNGGCMHMKCPQPQCRLEWCWNCGCEWNRVCMGDHWFDV
modifications: GST tag
notes: human parkin protein expressed in E. coli, substrate of TcPINK1
maximal stoichiometry of phosphorylation by TcPINK1 [5]: −0.25 moles of 32P-phosphate per mol
